US20050241012A1, “Multigene profiling in the kidney to tailor drug therapy” (priority 2003, published 2005)
Entries after “also recorded” stand apart in the source; their conditions may differ. Structures can show the parent of a compound that is named as a salt.

Legend:
renal slices = test: Renal tissue slice uptake assay, wild-type and Oat3−/− mice; conditions: for renal slice uptake in Oat3−/− mice compared with wild-type: 1 h, taurocholate or para-aminohippurate; for renal slice uptake in Oat3−/− mice compared with wild-type / ES transport in Oat3−/− renal slices in the presence of inhibitor: 100 nM estrone sulfate; for inhibition of taurocholate, estrone sulfate and para-aminohippurate uptake in wild-type renal slices / ES transport in Oat3−/− renal slices in the presence of inhibitor: 1 mM inhibitor
Method: (§1) Data were calculated as tissue to medium T/M ratios and are presented as mean values ±S. E. (3 slices, treatment).
(§2) Renal and hepatic tissue slice preparation and uptake assays were performed according to standard protocols. Four- to 6-month-old mice were euthanized by CO2 inhalation, and the liver and kidneys were immediately placed into freshly oxygenated ice-cold saline. Tissue slices (˜0.5 mm; ˜5-10 mg, wet weight) were cut with a Stadie-Riggs microtome and maintained in ice-cold modified Cross and Taggart saline (in mM: 95 NaCl, 80 mannitol, 5 KCl, 0.74 CaCl2, and 9.5 Na2PO4, pH 7.4). […] Conditions for the PAH experiments were optimized for Oat1 by the addition of 10 μM glutarate to the uptake buffer. After incubation the slices were removed from the uptake medium, blotted, weighed, dissolved in 1 ml of 1M NaOH, neutralized with 1 ml of 1M HCl, and assayed by liquid scintillation spectroscopy. Duplicate medium samples (50 μl) were also assayed, and data are presented as tissue to medium (T/M) ratios (i.e. dpm/mg of tissue divided by dpm/μl of medium).
Statistics. The renal slice data were compared using unpaired Student's t-test. Differences in mean values between the control and inhibited conditions were considered significant when p≦0.05.

mouse Oat3 = biological target: T1, mouse Oat3 (Mus musculus, UniProt O88909); conditions: 90 nM [3H]estrone sulfate
T1 sequence (O88909 1-537): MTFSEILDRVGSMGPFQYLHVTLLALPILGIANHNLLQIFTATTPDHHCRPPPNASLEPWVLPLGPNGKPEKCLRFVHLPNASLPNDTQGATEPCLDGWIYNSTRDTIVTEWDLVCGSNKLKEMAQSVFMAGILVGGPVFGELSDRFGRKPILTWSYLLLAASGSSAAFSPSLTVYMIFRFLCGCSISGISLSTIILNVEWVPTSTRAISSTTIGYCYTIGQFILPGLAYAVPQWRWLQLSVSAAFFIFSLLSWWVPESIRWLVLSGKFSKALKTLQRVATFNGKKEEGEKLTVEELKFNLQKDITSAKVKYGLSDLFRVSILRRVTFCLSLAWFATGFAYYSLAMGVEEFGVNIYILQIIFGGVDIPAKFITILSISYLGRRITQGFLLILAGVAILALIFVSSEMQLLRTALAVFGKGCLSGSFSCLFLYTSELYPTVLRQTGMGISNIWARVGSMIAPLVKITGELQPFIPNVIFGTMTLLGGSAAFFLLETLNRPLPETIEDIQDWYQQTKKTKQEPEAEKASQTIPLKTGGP
Method: FIG. 13 oocytes three days after injection with either mouse Oat1 or mouse Oat3 cRNA. Oocytes were randomly sorted into test groups and 1 h uptake determined.
Transport Assays-Xenopus oocyte isolation procedures and uptake assay. Ovaries were removed from tricaine methanesulfonate anesthetized adult female Xenopus laevis and follicle-free stage V and stage VI oocytes were isolated by treatment with collagenase A. After an overnight recovery period in Barth's buffer at 18° C., oocytes were microinjected with 20 ng of capped cRNA synthesized from linearized cDNA (mMessage mMachine in vitro transcription kit, Ambion, Inc., Austin, Tex.). […] Oocyte radioactivity was measured in disintegrations/min (dpm) in a Packard 1600TR liquid scintillation counter with external quench correction.

hepatic slices = test: Hepatic tissue slice uptake assay, wild-type and Oat3−/− mice; conditions: 1 h
Method: as §1, §2

choroid plexus = test: Accumulation in isolated choroid plexus, confocal fluorescence microscopy, wild-type and Oat3−/− mice; conditions: for reduction of cellular accumulation (cellular fluorescence) in CP from Oat3−/− mice: both, mouse, 45 min, 1 μM, pH 7.4
Description: The CP is composed of capillary projections surrounded by a single layer of cells that protrude into the cerebrospinal fluid-filled ventricles of the brain. The orientation is such that the CSF bathes the apical membrane of the cell and the basal membrane is toward the underlying fenestrated capillary. (A and C) Transmitted light images of wild-type and Oat3^−/− CP, respectively, showing the tissue structure. (B and D) Corresponding fluorescence micrographs of the CP shown in (A) and (C). Confocal images were acquired 45 min after exposure to 1 μM FL in the aCSF medium. […] The positions of representative cells and capillaries (CUD) are indicated by arrows. A 20-μm bar is shown.
Fluorescence levels in cells and vessels of CP from 4 wild-type and 4 Out3^−/− mice were measured (n=5-10 adjacent cellular and capillary areas/CP). […] Data are given as mean ±S.E. for each animal.
Choroid plexus isolation. Adult male and female wild-type and Oat3^−/− mice were euthanized with CO2.
Confocal Fluorescence Microscopy. CP were imaged as using an inverted Zeiss model 510 laser scanning confocal microscope fitted with a 40μ water immersion objective (numeric aperture, 1.2). Samples were illuminated with the 488-nm line of an argon laser; a 510-nm dichroic filter was in the light path, and a long pass emission filter (515 nm) was positioned in front of the detector. […] For each CP, 5-10 adjacent cellular and capillary areas were selected. After background subtraction, the average pixel intensity for each area was calculated and the values reported graphically for each CP are the means ±S.E. for all selected areas (n˜5-10). Values reported in the text are mean ±S.E. of the individual mean values for each CP as determined above (n˜4-6 animals/group).

Question: With `CC[N+](CC)(CC)CC` [TEA, tetraethylammonium] as the compound, how does the “renal slice uptake in Oat3−/− mice compared with wild-type” value (renal slices; 10 μM TEA) read?
Answer: unaltered; also recorded: unaffected

Question: How did the “inhibition of taurocholate, estrone sulfate and para-aminohippurate uptake in wild-type renal slices” value (renal slices) turn out when `O=C1OC(c2ccc(O)c(S(=O)(=O)O)c2)(c2ccc(O)c(S(=O)(=O)O)c2)c2c(Br)c(Br)c(Br)c(Br)c21` [BSP, bromo-sulfophthalein] was run?
Answer: sensitive to inhibition

Question: What about the “ES transport in Oat3−/− renal slices in the presence of inhibitor” value (renal slices) of the same compound?
Answer: additional drop

Question: What does the source list for `Nc1ccc(C(=O)NCC(=O)O)cc1` [PAH, para-aminohippurate]?
Answer: mediated uptake in Oat3-expressing oocytes (mouse Oat3; 1 h uptake, 10 μM [3H]PAH, 500 nM [3H]taurocholate): observed; hepatic slice uptake (hepatic slices): complete lack; renal slice uptake in Oat3−/− mice compared with wild-type (renal slices; 10 μM TEA): significant (p<0.001) decrease; also recorded: significantly reduced

Question: Which results are given for `CCCN(CCC)S(=O)(=O)c1ccc(C(=O)O)cc1` [probenecid]?
Answer: inhibition of Oat3-mediated ES transport in oocytes (mouse Oat3; 1 mM probenecid): completely blocked; inhibition of residual FL uptake in CP from Oat3 knockout animals (choroid plexus): probenecid-sensitive; inhibition of taurocholate, estrone sulfate and para-aminohippurate uptake in wild-type renal slices (renal slices): sensitive to inhibition; ES transport in Oat3−/− renal slices in the presence of inhibitor (renal slices): additional drop

Question: Which “inhibition of renal uptake of [14C]TEA” value (renal slices; 200 μM quinine sulfate, 10 μM TEA) does the source give for `C=C[C@H]1C[N@@]2CC[C@H]1C[C@H]2[C@H](O)c1ccnc2ccc(OC)cc12` [Quinine sulfate, quinine sulfate] here?
Answer: sensitive

Question: With `O=C1OC2(c3ccc(O)cc3Oc3cc(O)ccc32)c2ccccc21` [FL, fluorescein] as the compound, how does the “reduction of cellular accumulation (cellular fluorescence) in CP from Oat3−/− mice” value (choroid plexus; C57BL/6J) read?
Answer: ~75%

Question: And the “reduction of cellular accumulation (cellular fluorescence) in CP from Oat3−/− mice” value (choroid plexus)?
Answer: about 75%
